We go through 1 compound from ChEMBL document CHEMBL6153174, “Design and Synthesis of Novel Deazapurine DNMT 1 Inhibitors with In Vivo Efficacy in DLBCL” (J Med Chem, 2025).

Data set [1] can be described thus: Terminal elimination half life in Sprague-Dawley rat at 10 mg/kg, iv measured upto 24 hrs by LC/MS/MS analysis. The format is ADME, organism-based. The following applies: in vivo, read-out: beta t1/2 (converted).
Data set [2] in a line: Subacute toxicity in Balb/C mouse assessed as effect on lung at 30 mg/kg, iv administered three times in a week for 2 weeks. Format: organism-based. To be noted: in vivo, 336 h.

`CN1CCC(Nc2nc(-c3ccnc(F)c3)nc3c2ccn3CCCN2CCCC2)CC1`: in data set [1], the half-life was 10.8 h. Also, the Activity entry in data set [2] is “Non-toxic”.
